As usually defined, the Km is the substrate concentration at which the rate is half of its maximum.

The target of data set [1] is T1, DrCSAD (Danio rerio, UniProt A0A8M1N2X8).
T1 sequence (A0A8M1N2X8 1-500): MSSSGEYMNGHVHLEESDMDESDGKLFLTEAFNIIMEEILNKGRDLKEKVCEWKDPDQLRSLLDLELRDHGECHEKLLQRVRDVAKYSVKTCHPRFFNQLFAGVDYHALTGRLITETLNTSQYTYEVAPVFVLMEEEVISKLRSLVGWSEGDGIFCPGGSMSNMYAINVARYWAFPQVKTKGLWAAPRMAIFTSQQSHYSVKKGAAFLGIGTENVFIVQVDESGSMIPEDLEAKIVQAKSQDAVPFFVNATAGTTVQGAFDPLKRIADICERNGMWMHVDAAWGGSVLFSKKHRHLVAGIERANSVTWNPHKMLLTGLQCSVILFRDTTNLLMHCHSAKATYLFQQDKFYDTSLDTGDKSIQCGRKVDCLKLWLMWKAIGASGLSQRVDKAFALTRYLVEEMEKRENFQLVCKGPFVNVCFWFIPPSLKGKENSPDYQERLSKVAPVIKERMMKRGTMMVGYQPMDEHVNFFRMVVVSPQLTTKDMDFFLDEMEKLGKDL
In words: 1H NMR product quantification, specific activity. It is filed as biochemical. The note with it: 5 min reaction stopped with 1 M HCl, pH 7.0, 25 C; preferred substrate.

Data set [2] has as its target T2, HsCSAD (Homo sapiens, UniProt Q9Y600).
T2 sequence (Q9Y600 1-493): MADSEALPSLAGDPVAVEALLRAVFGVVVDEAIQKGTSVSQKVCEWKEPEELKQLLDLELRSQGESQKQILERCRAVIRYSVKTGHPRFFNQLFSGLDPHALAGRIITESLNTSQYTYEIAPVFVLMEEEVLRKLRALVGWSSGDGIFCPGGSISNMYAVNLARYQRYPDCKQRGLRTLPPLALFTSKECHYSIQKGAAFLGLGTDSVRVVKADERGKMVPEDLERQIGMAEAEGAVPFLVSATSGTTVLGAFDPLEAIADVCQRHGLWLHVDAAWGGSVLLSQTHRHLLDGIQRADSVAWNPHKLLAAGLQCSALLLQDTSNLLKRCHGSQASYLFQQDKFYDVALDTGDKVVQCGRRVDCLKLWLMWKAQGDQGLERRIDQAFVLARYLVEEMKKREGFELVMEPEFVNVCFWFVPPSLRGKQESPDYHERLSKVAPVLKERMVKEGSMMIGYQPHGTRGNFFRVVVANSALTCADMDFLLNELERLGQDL
Nature of the data set: 1H NMR product quantification, specific activity. The note with it: 5 min reaction stopped with 1 M HCl, pH 7.0, 25 C; preferred substrate. It is filed as biochemical.

Substrate in data set [3]: N[C@@H](CS(=O)(=O)O)C(=O)O
Nature of the data set: time-resolved 1H NMR, integrated Michaelis-Menten fit of progress curve. It is filed as biochemical, Gallus gallus. Particulars: 50 mM NaH2PO4 pH 7.0, 25 C, H2O:D2O 9:1, example time course.

On to `N[C@@H](CS(=O)O)C(=O)O` [CSA, cysteine sulfinic acid], for which the specific activity result in data set [1] is given as “observed the same preference for CSA in a CSAD ortholog of a basal vertebrate”; in data set [2], “We confirmed the opposite preference for the CSA substrate in human CSAD”.

B1: GgCAD (Gallus gallus) (protein)
chain: MAEQSDLERPAVDGAAGEEFLRAAFQVLLEEAVRKGTDVAQKVCEWKEPHELRELLDLELRSHGEPAGRLLERCRDIIRYSVKTCHPRFFNQLFSGLDHHALAGRLLTETLNTSQYTYEIAPVFVLMEEVVLAKLRELVGWNSGDGIFCPGGSISNMYAMNVARFQRFPESRQQGSRALPRLVLFASEECHYSIQKGAAFLGIGTDNVVLVRADERGKMIPEELEKEIERVKSEGAVPFFVSATSGTTVLGAFDPLGPVADVCQRHGLWLHVDAAWGGSALLSRKHRQLLAGIERADSVAWNPHKMLTVGLQCSAFLLRDDSGLLQRCHGAGAAYLFQPDKFYDVMFDTGDKTVQCGRRVDCLKLWLLWKAVGSEGLEQRVDRAFACTSYLAAEMKRRDGFQLVLEPEFINLCFWFVPPSLRGQQGCTDFGPRLGKVAPAIKERMMKEGSMMVGYQPHGTRPNFFRQIVTSPAVTRADLDFFLDEIERLGCDL
B1: the Km in data set [3] came to 6.95 ± 3.23 mM.

(Values after publication PMC8364350 (Nature ecology & evolution, 2020).)
